Test [1] deals with T1, SHP2 (Homo sapiens (Human), UniProt Q06124). As to the kind of experiment: Phosphatase assay (single dose inhibition), DiFMUP substrate. The following applies: compound at 0.1 μM (100 nM); SHP2 0.5 nM activated with dPEG8 peptide; DiFMUP 12 μM; relative to DMSO control. In kind it is biochemical. On the procedure: DMSO [0.5% (v/v)] or compounds (100 nM) were added to the mixture and incubated for 30 min at room temperature. […] The experiment is carried out in triplicate. The value for the control sample (DMSO) was set to 100%, and the values for the compound-treated samples were expressed as activity relative to the control sample.
T1 sequence (Q06124 whole entry): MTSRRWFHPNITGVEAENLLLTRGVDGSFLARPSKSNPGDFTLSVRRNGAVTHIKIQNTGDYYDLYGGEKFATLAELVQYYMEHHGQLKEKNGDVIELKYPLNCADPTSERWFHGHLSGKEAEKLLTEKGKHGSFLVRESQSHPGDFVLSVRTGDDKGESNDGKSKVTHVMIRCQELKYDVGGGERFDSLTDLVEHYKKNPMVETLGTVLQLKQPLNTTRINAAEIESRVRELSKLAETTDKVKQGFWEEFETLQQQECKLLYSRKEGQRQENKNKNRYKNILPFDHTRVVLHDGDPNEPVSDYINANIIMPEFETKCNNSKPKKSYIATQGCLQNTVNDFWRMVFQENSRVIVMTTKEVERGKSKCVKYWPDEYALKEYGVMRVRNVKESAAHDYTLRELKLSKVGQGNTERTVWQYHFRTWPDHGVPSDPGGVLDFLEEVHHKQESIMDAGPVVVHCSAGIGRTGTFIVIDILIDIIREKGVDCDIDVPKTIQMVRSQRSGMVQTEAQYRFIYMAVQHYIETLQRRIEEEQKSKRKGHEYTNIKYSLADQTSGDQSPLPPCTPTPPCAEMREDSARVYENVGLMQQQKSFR

For test [2], the target named is T1, SHP2. As to the kind of experiment: Phosphatase assay (IC50), DiFMUP substrate. As to conditions: SHP2 0.5 nM activated with dPEG8 peptide; DiFMUP 12 μM; compounds 0.3 nM to 1 μM. The format is biochemical. On the procedure:
DMSO [0.5% (v/v)] or compounds (concentrations ranging from 0.3 nM to 1 μM) were added to the mixture and incubated for 30 min at room temperature.

Another test has as its system KYSE-520 cells. Kind of test: Cell proliferation assay (MTS/PMS). The format is cell-based. As to conditions: Homo sapiens, 192 h, 1500 cells/well, RPMI-1640 3% FBS, read at day 8. On the procedure:
For drug treatment, compounds of the invention at various concentrations were added 24 hours after cell plating. At day 8, 50 μL MTS/PMS reagents (Promega/Sigma) were added, and the absorbance value was determined according to the supplier's instruction (Promega).

One may read the inhibition as the percentage by which the read-out fell short of the control. A lower inhibition goes with a response near the control. By IC50 is commonly meant the midpoint of a concentration-inhibition curve.

Where a name gives a salt, the structure may show the parent alone.

For the compound `CN(C)C(=O)C(=O)c1ccc(C(=O)Nc2cccc(Sc3ncc(N4CCC(C)(N)CC4)nc3N)c2Cl)cc1` [Example 3, N-(3-((3-amino-5-(4-amino-4-methylpiperidin-1-yl)pyrazin-2-yl)thio)-2-chlorophenyl)-4-(2-(dimethylamino)-2-oxoacetyl)benzamide], on SHP2 [1], the inhibition at 0.1 µM was determined as 60%.

`Nc1nc(N2CCC3(CC2)COC[C@H]3N)cnc1Sc1cccc2c1C(F)(F)C(=O)N2` [Example 8, (S)-4-((3-amino-5-(4-amino-2-oxa-8-azaspiro[4.5]decan-8-yl)pyrazin-2-yl)thio)-3,3-difluoroindolin-2-one] showed an inhibition at 0.1 µM against SHP2 [1] of 76%. The half-maximal inhibitory concentration (IC50) against SHP2 [2] worked out at 0.0214 µM; in the test on KYSE-520 cells, 26.4 µM. For `CN1C(=O)C(F)(C(F)(F)F)c2c(Sc3ncc(N4CCC5(CC4)COC[C@H]5N)nc3N)cccc21` (stereo partly drawn) [Example 58, 4-((3-amino-5-((S)-4-amino-2-oxa-8-azaspiro[4.5]decan-8-yl)pyrazin-2-yl)thio)-3-fluoro-1-methyl-3-(trifluoromethyl)indolin-2-one], at 0.1 µM the inhibition against SHP2 [1] was 61%. Consider `CC(=O)N1CCc2c(Sc3ncc(N4CCC5(CC4)COC[C@H]5N)nc3N)cccc21` [Example 72, (S)-1-(4-((3-amino-5-(4-amino-2-oxa-8-azaspiro[4.5]decan-8-yl)pyrazin-2-yl)thio)indolin-1-yl)ethanone], for which, on SHP2 [1], the inhibition at 0.1 µM was found to be 31%. `Nc1nc(N2CCC3(CC2)C(=O)N2CCCC2C3N)cnc1Sc1ccnc(N)c1Cl` (centres unmarked) [Example 75, 1′-amino-1-(6-amino-5-((2-amino-3-chloropyridin-4-yl)thio)pyrazin-2-yl)tetrahydrospiro[piperidine-4,2′-pyrrolizin]-3′(1′H)-one]: 0.1 µM produced 35% inhibition at SHP2 [1]. For the compound `CC(=O)n1ccc2c(Sc3ncc(N4CCC5(CC4)COC[C@H]5N)nc3N)cccc21` [Example 43, (S)-1-(4-((3-amino-5-(4-amino-2-oxa-8-azaspiro[4.5]decan-8-yl)pyrazin-2-yl)thio)-1H-indol-1-yl)ethanone], at SHP2 [1], the inhibition at 0.1 µM was determined as 43%. Still for that read-out and setting: next, `CN(C)C(=O)C(=O)c1ccc(C(=O)Nc2nccc(Sc3ncc(N4CCC(C)(CN)CC4)nc3N)c2Cl)cc1` [Example 35, N-(4-((3-amino-5-(4-(aminomethyl)-4-methylpiperidin-1-yl)pyrazin-2-yl)thio)-3-chloropyridin-2-yl)-4-(2-(dimethylamino)-2-oxoacetyl)benzamide]: 30%. Regarding `Nc1nc(N2CCC3(CC2)COC[C@H]3N)cnc1Sc1cccc2[nH]cc(F)c12` [Example 40, (S)-8-(6-amino-5-((3-fluoro-1H-indol-4-yl)thio)pyrazin-2-yl)-2-oxa-8-azaspiro[4.5]decan-4-amine], testing at 0.1 µM against SHP2 [1] gave an inhibition of 71%. This compound also displayed an IC50 against SHP2 [2] of 0.0406 µM. As for `Nc1nc(N2CCC3(CC2)COC[C@H]3N)cnc1Sc1cccc2[nH]ccc12` [Example 42, (S)-8-(5-((1H-indol-4-yl)thio)-6-aminopyrazin-2-yl)-2-oxa-8-azaspiro[4.5]decan-4-amine], at 0.1 µM the inhibition against SHP2 [1] was 58%. The same measure, in the same setting: next, `Cc1ccc(C(=O)C(=O)Nc2cccc(Sc3ncc(N4CCC(C)(N)CC4)nc3N)c2Cl)cc1` [Example 31, N-(3-((3-amino-5-(4-amino-4-methylpiperidin-1-yl)pyrazin-2-yl)thio)-2-chlorophenyl)-2-oxo-2-(p-tolyl)acetamide]: 53%.

With `CN(C)C(=O)C(=O)Nc1cccc(Sc2ncc(N3CCC4(CC3)COC[C@H]4N)nc2N)c1Cl` [Example 1, (S)-N1-(3-((3-amino-5-(4-amino-2-oxa-8-azaspiro[4.5]decan-8-yl)pyrazin-2-yl)thio)-2-chlorophenyl)-N2,N2-dimethyloxalamide hydrochloride], the midpoint of inhibition in the test on KYSE-520 cells, the IC50, lay at 15.9 µM. The same measure, in the same setting: next, `CC(=O)N1CC(F)(F)c2c(Sc3ncc(N4CCC(C)(CNC(=O)OC(C)(C)C)CC4)nc3N)cccc21` [Example 13, tert-butyl ((1-(5-((1-acetyl-3,3-difluoroindolin-4-yl)thio)-6-aminopyrazin-2-yl)-4-methylpiperidin-4-yl)methyl)carbamate]: 20.6 µM. Compound `C=CC(=O)Nc1cccc(Sc2ncc(N3CCC(C)(NC(=O)OC(C)(C)C)CC3)nc2N)c1Cl` [Example 32, tert-butyl (1-(5-((3-acrylamido-2-chlorophenyl)thio)-6-aminopyrazin-2-yl)-4-methylpiperidin-4-yl)carbamate] returned an inhibition at 0.1 µM at SHP2 [1] of 49%. On the same count and under the same terms, next, `CN(C)C(=O)C(=O)Nc1cccc(Sc2ncc(N3CCC(C)(N)CC3)nc2N)c1Cl` [Example 29, N^1-(3-((3-amino-5-(4-amino-4-methylpiperidin-1-yl)pyrazin-2-yl)thio)-2-chlorophenyl)-N^2,N^2-dimethyloxalamide]: 47%; `CN(C)C(=O)C(=O)c1ccc(C(=O)Nc2nccc(Sc3ncc(N4CCC(C)(N)CC4)nc3N)c2Cl)cc1` [Example 34, N-(4-((3-amino-5-(4-amino-4-methylpiperidin-1-yl)pyrazin-2-yl)thio)-3-chloropyridin-2-yl)-4-(2-(dimethylamino)-2-oxoacetyl)benzamide]: 37%; `Nc1nc(N2CCC3(CC2)COC[C@H]3N)cnc1Sc1ccnc2[nH]ccc12` [Example 38, (S)-8-(5-((1H-pyrrolo[2,3-b]pyridin-4-yl)thio)-6-aminopyrazin-2-yl)-2-oxa-8-azaspiro[4.5]decan-4-amine]: 30%. At SHP2 [1], `CN(C)C(=O)C(=O)Nc1cccc(Sc2ncc(N3CCC(C)(CN)CC3)nc2N)c1Cl` [Example 20, N^1-(3-((3-amino-5-(4-(aminomethyl)-4-methylpiperidin-1-yl)pyrazin-2-yl)thio)-2-chlorophenyl)-N^2,N^2-dimethyloxalamide] showed an inhibition at 0.1 µM of 57%. As to `Nc1nc(N2CCC3(CC2)COC[C@H]3N)cnc1Sc1ccnc2c1C(F)(F)C(=O)N2` [Example 10, (S)-4-((3-amino-5-(4-amino-2-oxa-8-azaspiro[4.5]decan-8-yl)pyrazin-2-yl)thio)-3,3-difluoro-1H-pyrrolo[2,3-b]pyridin-2(3H)-one], the inhibition at 0.1 µM at SHP2 [1] turned out to be 81%. Further, the IC50 on SHP2 [2] stood at 0.03 µM. `CN1C(=O)C(F)(F)c2c(Sc3ncc(N4CCC5(CC4)COC[C@H]5N[S@+]([O-])C(C)(C)C)nc3N)cccc21` [Example 11, (R)-N-((S)-8-(6-amino-5-((3,3-difluoro-1-methyl-2-oxoindolin-4-yl)thio)pyrazin-2-yl)-2-oxa-8-azaspiro[4.5]decan-4-yl)-2-methylpropane-2-sulfinamide] gave an IC50 with KYSE-520 cells of 12 µM. `Nc1nc(N2CCC3(CC2)CC2CC2C3N)cnc1Sc1ccnc(N)c1Cl` (centres unmarked) [Example 74, 1′-(6-amino-5-((2-amino-3-chloropyridin-4-yl)thio)pyrazin-2-yl)spiro[bicyclo[3.1.0]hexane-3,4′-piperidin]-2-amine] returned an inhibition at 0.1 µM against SHP2 [1] of 75%. For the same compound, the results for the half-inhibitory concentration (IC50) on SHP2 [2] and in the test with KYSE-520 cells were 0.0083 µM and 3.38 µM, respectively.
